Data published in patent US7875601B2, “Cancer treatment with epothilones” (Novartis AG, priority 1998, dated 2011).
Entries after “also recorded” stand apart in the source; their conditions may differ. Read-outs that look alike come from different tables or passages of the source.

Legend:
[1] = tested on: human COLO 205 colon tumors; type: in vivo, female BALB/c nude mice; settings: 4 mg/kg, day 32
Procedure: (§1) Female or male BALB/c nu/nu (nude) mice are kept under sterile conditions (10 to 12 mice per Type III cage) with free access to food and water. Mice weigh between 20 and 25 grams at the time of tumor implantation. Tumors are established by subcutaneous injection of cells (minimum 2×10^6 cells in 100 μl PBS or medium) in carrier mice (4-8 mice per cell line). The resulting tumors are serially passaged for a minimum of three consecutive transplantations prior to start of treatment. Tumor fragments (approx. 25 mg) are implanted s.c. into the left flank of animals with a 13-gauge trocar needle while the mice are exposed to Forene (Abbott, Switzerland) anesthesia.
(§2) Tumor growth and body weights are monitored once or twice weekly. All treatments are administered intravenously (i.v.) and are initiated when a mean tumor volume of approximately 100 to 250 mm^3 is attained, depending upon the tumor type. Tumor volumes are determined using the formula […] (see Cancer Chemother. Pharmacol. 24:148-154, [1989]). Treatments with epothilone B vary the dose and the frequency of administration. Comparator agents are administered according to previously determined optimal treatment regimens. In addition to presenting changes in tumor volumes over the course of treatment, antitumor activity is expressed as T/C % (mean increase of tumor volumes of treated animals divided by the mean increase of tumor volumes of control animals multiplied by 100). Tumor. regression (%) represents the smallest mean tumor volume compared to the mean tumor volume at the start of treatment, according to the formula Regression (%)=(1−Vend/Vstart)×100(Vend=final mean tumor volume, Vstart=mean tumor volume at the start of treatment. Any animals in which the tumor has reached a size exceeding approximately 1.5 to 2.5 cm^3 are sacrificed. Details can be found below.

[2] = tested on: human estrogen-dependent ZR-75-1 breast tumors; assay: Antitumor effect against s.c. transplanted ZR-75-1 breast tumors; type: in vivo, female BALB/c nude mice
Procedure: as §1, §2

[3] = Two-week intravenous toxicity study in mice; type: in vivo, normal female BALB/c mice
Procedure: In order to assess the sub-chronic intravenous toxicity of epothilone B, a non-GLP two-week i.v. toxicity study in non-tumor bearing, normal female BALB/c mice is conducted, involving analysis of mortality, clinical signs, body weight, food consumption, hematology, clinical biochemistry, urinalysis, and organ weights as well as macro and microscopic examinations. The study is based on two different dosing regiments of epothilone B of 3 mg/kg and 10 mg/kg, respectively, administered on days 1 and 8 (8 animals per group). Half of the animals are killed on day 15 (main group) and necropsy is performed. For the other half (recovery group) a recovery period of 5 weeks is allowed after administration of the second dose before sacrifice and subsequent necropsy on day 43.

[4] = tested on: PC-3M (Prostate); assay: Antiproliferative assay, PC-3M; type: cell-based, human; settings: 3 d exposure, mean ± SD, read-out: IC50 for growth inhibition
Procedure: A human androgen-independent prostate cancer cell line is used to establish subcutaneous and orthotopic models in mice. The human metastatic prostate carcinoma PC-3M is obtained from Dr. I. J. Fidler (MD Anderson Cancer Center, Houston, Tex., USA) and is cultured in Ham's F12K media supplemented with 7% v/v FBS. The PC-3M cell line is the result of isolation from liver metastasis produced in nude mice subsequent to intrasplenic injection of PC-3 cells [ATCC CRL 1435; American Type Culture Collection (Rockville, Md., USA)], and they can grow in Eagle's MEM supplemented with 10% fetal bovine serum, sodium pyruvate, non-essential amino acids, L-glutamine, a two-fold vitamin solution (Gibco Laboratories, Long Island, N.Y.) and penicillin-streptomycin (Flow Laboratories, Rockville, Md.). The PC-3M cell line is hormone-insensitive (that is, it grows in the absence of androgens). […] No normal Y chromosomes can be detected by Q-band analysis.
Antiproliferative assays are performed as previously described (Int. J. Cancer 43, 851-6 (1989)). […] After washing, the dye is eluted with 3% v/v HCl and the optical density measured at 665 nm with a SpectraMax 340 (Bucherer, Basel, Switzerland). IC50 values are determined by a computerized system (SoftPro, Bucherer, Basel, Switzerland) using the formula (OD test−OD start)/(OD control−OD start)×100. […]

[5] = 1 mg/kg, i.v. every 7 days, day 47
[6] = 2 mg/kg, i.v. every 7 days, day 47
[7] = 4 mg/kg, i.v. every 7 days, day 47
[8] = 4 mg/kg, i.v. every 14 days, day 47
[9] = 3 mg/kg i.v. on days 1 and 8, day 15
[10] = 10 mg/kg i.v. on days 1 and 8, day 15
[11] = both dose levels (3 and 10 mg/kg), day 15

Question: What does the source list for `C/C(=C\c1csc(C)n1)[C@@H]1C[C@@H]2O[C@]2(C)CCC[C@H](C)[C@H](O)[C@@H](C)C(=O)C(C)(C)[C@@H](O)CC(=O)O1` [epothilone B]?
Answer: T/C ([1]; i.v. every 7 days (days 14, 21, 28)): Regressions; % Body Weight Change ([1]; i.v. every 7 days): −18 ± 1%; Regression ([1]; i.v. every 7 days): −87%; Survival (No. alive/total) ([1]; i.v. every 7 days): 5/7; Δ Body Weight ([1]; i.v. every 7 days): -4.0 ± 0.2 g; Δ Tumor Volume (mm^3) ([1]; i.v. every 7 days): −83 ± 7 mm^3; T/C ([1]; i.v. every 14 days (days 14 and 28)): Regressions; % Body Weight Change ([1]; i.v. every 14 days): −4 ± 4%; Regression ([1]; i.v. every 14 days): −69%; Survival (No. alive/total) ([1]; i.v. every 14 days): 7/7; Δ Body Weight ([1]; i.v. every 14 days): -1.1 ± 1.0 g; Δ Tumor Volume (mm^3) ([1]; i.v. every 14 days): −62 ± 7 mm^3; % Body Weight Change ([1]; i.v. once): 9 ± 1%; Regression ([1]; i.v. once): −66%; Survival (No. alive/total) ([1]; i.v. once): 5/7; T/C ([1]; i.v. once): Regressions; Δ Body Weight ([1]; i.v. once): 2.0 ± 0.1 g; Δ Tumor Volume (mm^3) ([1]; i.v. once): −58 ± 11 mm^3; % Body Weight Change [2, 5]: 2 ± 5%; Regression [2, 5]: none; Survival (No. alive/total) [2, 5]: 4/6; T/C (%) [2, 5]: 86%; Δ Body Weight [2, 5]: 0.3 ± 1.2 g; Δ Tumor Volume (mm^3) [2, 5]: 393 ± 135 mm^3; % Body Weight Change [2, 6]: −14 ± 6%; Regression [2, 6]: none; Survival (No. alive/total) [2, 6]: 5/6; T/C (%) [2, 6]: 40%; Δ Body Weight [2, 6]: -3.5 ± 1.6 g; Δ Tumor Volume (mm^3) [2, 6]: 227 ± 76 mm^3; T/C (%) ([2]; 4 mg/kg, i.v. every 7 days (days 19, 26 and 33), day 47): 1%; % Body Weight Change [2, 7]: −5 ± 3%; Survival (No. alive/total) [2, 7]: 3/6; Δ Body Weight [2, 7]: -1.2 ± 0.6 g; Δ Tumor Volume (mm^3) [2, 7]: 29 ± 16 mm^3; Regression ([2]; 4 mg/kg, i.v. every 7 days, transient): −8%; T/C (%) ([2]; 4 mg/kg, i.v. every 14 days (days 19 and 33), day 47): 46%; % Body Weight Change [2, 8]: −7 ± 5%; Regression [2, 8]: none; Survival (No. alive/total) [2, 8]: 4/6; Δ Body Weight [2, 8]: -1.6 ± 1.1 g; Δ Tumor Volume (mm^3) [2, 8]: 208 ± 86 mm^3; body weight loss ([3]; 3 mg/kg i.v. on days 1 and 8): only apparent in the second week; atrophy of the thymus [3, 9]: moderate; number of leukocytes, especially neutrophils and lymphocytes [3, 9]: reduction in the number of leukocytes; sternal bone marrow histology [3, 9]: minimal to slight erythroid and myeloid atrophy; organ weights at the end of the recovery period ([3]; 3 mg/kg i.v. on days 1 and 8, day 43): comparable to those of control animals; mortalities throughout the treatment period ([3]; 3 mg/kg i.v. on days 1 and 8, days 1-14): No mortalities; survival of the recovery group ([3]; 3 mg/kg i.v. on days 1 and 8, up to day 43): all animals of the recovery group survive until the end of the study; also recorded: tolerated without mortality; hematological parameters at the end of the recovery period ([3]; 3 mg/kg recovery group, day 43): normal for two out of the four animals; survival of the recovery group ([3]; 10 mg/kg i.v. on days 1 and 8): all animals of the recovery group have to be sacrificed prematurely on day 19; also recorded: death (or sacrifice) of all treated animals; atrophy of the thymus [3, 10]: marked; number of leukocytes, especially neutrophils and lymphocytes [3, 10]: reduction in the number of leukocytes; spleen histology [3, 10]: minimal lymphoid atrophy; sternal bone marrow histology [3, 10]: minimal to slight myeloid hypoplasia; mortalities throughout the treatment period ([3]; 10 mg/kg i.v. on days 1 and 8, days 1-14): No mortalities; body weight loss ([3]; 10 mg/kg i.v. on days 1 and 8, first and second week): Body weight loss is observed for all animals; clinical chemistry profile ([3]; 3 and 10 mg/kg i.v. on days 1 and 8): Only minor changes; intestinal mucosa (small and large intestine) histology [3, 11]: Minimal single cell necrosis; organ weights [3, 11]: pronounced changes in thymus, spleen, and uterus weights; IC50 [4]: 3.82 ± 0.47 nM
